In paper PMC3569073 (Journal of medicinal chemistry, 2013):
pEC50, pIC50, pKi: −log10 of the molar value. Values joined by “and” are separate entries in the source; they are usually repeats but may differ in a detail not shown here. Equal values may be shown once. Read-outs that look alike come from different tables or passages of the source.

What was measured:
[1] = test system: 68 discrete GPCRs, ion channels and transporters; assay type: binding; settings: 10 μM
SARS-CoV 3CLpro = SARS-CoV 3CLpro (Severe acute respiratory syndrome coronavirus, UniProt P0C6X7); assay: biochemical; assay type: biochemical; settings: for inhibition at 100 µM: read-out: 3CLpro inhibition level
SARS 3CLpro = settings: cited from earlier work
SARS-CoV = settings: cited from earlier work
[2] = biological target: T1, 3CLpro enzyme from the human coronavirus HKU1 (Human coronavirus HKU1, UniProt P0C6X2); assay type: biochemical; settings: 100 μM
T1 sequence (P0C6X2 3335-3637 limits assumed): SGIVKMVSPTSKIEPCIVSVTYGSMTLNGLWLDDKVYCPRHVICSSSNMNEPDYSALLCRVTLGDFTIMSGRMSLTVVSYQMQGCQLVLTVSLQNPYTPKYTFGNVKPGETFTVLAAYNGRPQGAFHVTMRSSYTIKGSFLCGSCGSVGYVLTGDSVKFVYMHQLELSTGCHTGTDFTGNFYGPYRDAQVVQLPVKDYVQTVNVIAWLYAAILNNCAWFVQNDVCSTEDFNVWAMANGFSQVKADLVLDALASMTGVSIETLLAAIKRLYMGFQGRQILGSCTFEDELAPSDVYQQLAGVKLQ

[3] = biological target: T2, 3CLpro enzyme from the mouse coronavirus MHV (Murine coronavirus, UniProt P0C6X9); assay type: biochemical; settings: 100 μM
T2 sequence (P0C6X9 3334-3635 limits assumed): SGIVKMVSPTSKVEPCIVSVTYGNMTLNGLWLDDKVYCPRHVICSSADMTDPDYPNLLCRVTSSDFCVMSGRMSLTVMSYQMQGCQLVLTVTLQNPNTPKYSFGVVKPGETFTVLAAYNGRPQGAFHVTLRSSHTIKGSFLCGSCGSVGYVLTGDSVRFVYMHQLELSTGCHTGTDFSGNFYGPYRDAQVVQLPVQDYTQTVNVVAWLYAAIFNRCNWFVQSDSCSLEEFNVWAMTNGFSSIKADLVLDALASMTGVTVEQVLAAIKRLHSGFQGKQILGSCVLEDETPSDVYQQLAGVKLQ

[4] = test system: SARS-CoV infected Vero cells; settings: cited from earlier work

Compound: CC(C)(C)NC(=O)[C@@H](c1cccnc1)N(C(=O)c1ccco1)c1ccc(C(C)(C)C)cc1 [16-(R), (R)-N-(4-(tert-butyl)phenyl)-N-(2-(tert-butylamino)-2-oxo-1-(pyridin-3-yl)ethyl)furan-2-carboxamide]
- activity in lead-profiling screen [1]: < 50%
- solubility (physchem): ≤ 95 µg/mL and ≤ 219 µM

Compound: CCC(C)c1ccc(N(C(=O)c2ccco2)C(C(=O)NC2CCCC2)c2cccnc2)cc1 (stereo not shown) [Compound 14]
- pIC50 (SARS-CoV 3CLpro): > 5.00

Compound: CC(C)(C)NC(=O)C(c1cccnc1)N(C(=O)c1ccco1)c1ccc(C(C)(C)C)cc1 (stereo not shown) [Compound 16]
- inhibition at 100 µM (SARS-CoV 3CLpro): > 50%

Compound: CC(C)c1ccc(N(C(=O)c2ccco2)C(C(=O)NC(C)(C)C)c2cccnc2)cc1 (stereo not shown) [Compound 17, N-(2-(tert-butylamino)-2-oxo-1-(pyridin-3-yl)ethyl)-N-(4-isopropylphenyl)furan-2-carboxamide]
- pIC50 (SARS-CoV 3CLpro; read-out: 3CLpro IC50): > 4.30
- inhibition at 100 µM (SARS-CoV 3CLpro): > 50%

Compound: CC(C)(C)NC(=O)C(c1cccnc1)N(C(=O)c1ccco1)C1CC1 (stereo not shown) [Compound 18, N-(2-(tert-butylamino)-2-oxo-1-(pyridin-3-yl)ethyl)-N-cyclopropylfuran-2-carboxamide]
- 3CLpro inhibition, SAR result in words (SARS-CoV 3CLpro): deleterious for inhibition

Compound: CC(C)(C)NC(=O)C(c1cccnc1)N(C(=O)c1ccco1)c1ccc(F)cc1 (stereo not shown) [Compound 19, N-(2-(tert-butylamino)-2-oxo-1-(pyridin-3-yl)ethyl)-N-(4-fluorophenyl)furan-2-carboxamide]
- 3CLpro inhibition, SAR result in words (SARS-CoV 3CLpro): deleterious for inhibition

Compound: CC(C)(C)NC(=O)C(c1ccsc1)N(C(=O)c1ccco1)c1ccc(C(C)(C)C)cc1 (stereo not shown) [Compound 20, N-(4-(tert-butyl)phenyl)-N-(2-(tert-butylamino)-2-oxo-1-(thiophen-3-yl)ethyl)furan-2-carboxamide]
- 3CLpro inhibition, SAR result in words (SARS-CoV 3CLpro): complete loss of inhibition activity

Compound: Cc1ccc(C(=O)N(c2ccc(C(C)(C)C)cc2)C(C(=O)NC(C)(C)C)c2cccnc2)o1 (stereo not shown) [Compound 21]
- 3CLpro inhibition, SAR result in words (SARS-CoV 3CLpro): negatively impacted activity

Compound: Cc1ccoc1C(=O)N(c1ccc(C(C)(C)C)cc1)C(C(=O)NC(C)(C)C)c1cccnc1 (stereo not shown) [Compound 26]
- 3CLpro inhibition, SAR result in words (SARS-CoV 3CLpro): negatively impacted activity

Compound: CC(C)(C)NC(=O)C(c1cccnc1)N(C(=O)c1cccs1)c1ccc(C(C)(C)C)cc1 (stereo not shown) [Compound 27, N-(4-(tert-butyl)phenyl)-N-(2-(tert-butylamino)-2-oxo-1-(pyridin-3-yl)ethyl)thiophene-2-carboxamide]
- 3CLpro inhibition, SAR result in words (SARS-CoV 3CLpro): weakly tolerated
- fold loss of 3CLpro activity relative to furan 16 (SARS-CoV 3CLpro): 10 fold

Compound: CC(C)(C)NC(=O)C(c1cccnc1)N(C(=O)c1c[nH]cn1)c1ccc(C(C)(C)C)cc1 (stereo not shown) [Compound 31, N-(4-(tert-butyl)phenyl)-N-(2-(tert-butylamino)-2-oxo-1-(pyridin-3-yl)ethyl)-1H-imidazole-4-carboxamide]
- 3CLpro inhibition, SAR result in words (SARS-CoV 3CLpro): nearly equipotent

Compound: CC(C)(C)NC(=O)C(c1cccnc1)N(C(=O)C1CCCO1)c1ccc(C(C)(C)C)cc1 (stereo not shown) [Compound 32]
- pIC50 (SARS-CoV 3CLpro): < 4.30
- fold loss of 3CLpro activity relative to furan 16 (SARS-CoV 3CLpro): > 10 fold

Compound: CC(C)(C)NC(=O)C(c1cccnc1)N(C(=O)c1ccc[nH]1)c1ccc(C(C)(C)C)cc1 (stereo not shown) [Compound 37]
- 3CLpro inhibition, SAR result in words (SARS-CoV 3CLpro): completely inactive

Compound: CC(C)(C)NC(=O)C(c1cccnc1)N(C(=O)c1ccc(Cl)o1)c1ccc(C(C)(C)C)cc1 (stereo not shown) [Compound 50]
- 3CLpro inhibition, SAR result in words (SARS-CoV 3CLpro): nearly equipotent to 16

Compound: CC(C)(C)NC(=O)C(c1cccnc1)N(C(=O)Cc1cnc[nH]1)c1ccc(C(C)(C)C)cc1 (stereo not shown) [Compound 51]
- 3CLpro inhibition, SAR result in words (SARS-CoV 3CLpro): deleterious for inhibition

Compound: Cn1cnc(C(=O)N(c2ccc(C(C)(C)C)cc2)C(C(=O)NC(C)(C)C)c2cccnc2)c1 (stereo not shown) [Compound 52, N-(4-(tert-butyl)phenyl)-N-(2-(tert-butylamino)-2-oxo-1-(pyridin-3-yl)ethyl)-1-methyl-1H-imidazole-4-carboxamide]
- fold loss of 3CLpro activity relative to imidazole 31 (SARS-CoV 3CLpro): > 10 fold

Compound: CC(C)(C)NC(=O)C(c1ccnnc1)N(C(=O)c1ccco1)c1ccc(C(C)(C)C)cc1 (stereo not shown) [Compound 53]
- 3CLpro inhibition, SAR result in words (SARS-CoV 3CLpro): well tolerated

Compound: CC(C)(C)NC(=O)C(c1cnccn1)N(C(=O)c1ccco1)c1ccc(C(C)(C)C)cc1 (stereo not shown) [Compound 54]
- 3CLpro inhibition, SAR result in words (SARS-CoV 3CLpro): well tolerated

Compound: Cc1ccc(C(C(=O)NC(C)(C)C)N(C(=O)c2ccco2)c2ccc(C(C)(C)C)cc2)cn1 (stereo not shown) [Compound 55, N-(4-(tert-butyl)phenyl)-N-(2-(tert-butylamino)-1-(6-methylpyridin-3-yl)-2-oxoethyl)furan-2-carboxamide]
- 3CLpro inhibition, SAR result in words (SARS-CoV 3CLpro): not permitted

Compound: CC(C)(C)NC(=O)C(c1ccncc1)N(C(=O)c1ccco1)c1ccc(C(C)(C)C)cc1 (stereo not shown) [Compound 56]
- 3CLpro inhibition, SAR result in words (SARS-CoV 3CLpro): weak inhibitors

Compound: CC[C@H](NC(=O)[C@@H](NC(=O)OCc1ccccc1)[C@@H](C)OC(C)(C)C)C(=O)N[C@H](C=O)C[C@@H]1CCNC1=O [TG-0205221]
- pKi (SARS 3CLpro): 7.28
- pEC50 (SARS-CoV): 6.22

Compound: CN(C)CCCSc1ccccc1NC(=O)/C=C/c1ccccc1 [cinanserin]
- inhibition of SARS-CoV 3CLpro (SARS-CoV 3CLpro; 100 μM): no inhibition
- inhibition of authentic SARS-CoV 3CLpro (SARS-CoV 3CLpro; 100 μM): no inhibition
- inhibition of HKU1 3CLpro [2]: no inhibition
- inhibition of MHV 3CLpro [3]: no inhibition
- reduction of viral RNA in cell culture media [4]: 3 log
